Results on six compounds are retold here after EP0351767A2, “Use of potassium channel activators to inhibit myocardial cell necrosis and to maintain the functioning of the heart during myocardial ischemia and/or reperfusion” (E.R. SQUIBB & SONS, INC., priority 1988, dated 1990).

Series [1] has as its system rat portal vein. The series is described as follows: Inhibition of spontaneous mechanical activity (twitch height and frequency) in isolated rat portal vein. The settings on record: for IC50: Rattus norvegicus. The method, then:
(§1) A bicarbonate buffered physiological salt solution (PSS) was used containing, in mM: 118.4 NaCl, 4.7 KCl, 1.2 KH₂PO₄ 1.2 MgSO₄, 2.5 CaCl₂, 25.0 NaHCO₃ and 11.7 glucose. PSS with varying concentrations of KCl was prepared by addition of appropriate amounts of KCl from a 4M KCl stock. Calcium free PSS was prepared by deletion of CaCl₂ and addition of 1.0 mM [ethylenebis(oxyethylenitrilo)]-tetraacetic acid (EGTA). All solutions were aerated with 95% O₂-5% CO₂ such that the pH was 7.4. Experiments were conducted at 37°C.
Stock solutions of test compounds were prepared daily. The compounds were dissolved in water or DMSO as appropriate.
(§2) Normotensive male Wistar Kyoto rats approximately 14 weeks old were sacrificed using CO₂. The thoracic aorta and portal vein were quickly removed and placed into cold PSS. Blood was rinsed from the lumen and adherent connective tissue was carefully removed. Rings approximately 4 mm in width were cut from each aorta. The endothelium was mechanically removed by inserting a wire into the lumen and gently rolling the ring on filter paper moistened with PSS. The aortic rings were mounted on stainless steel tissue wires attached to tissue holders. An intact segment of portal vein extending approximately 2 cm from the liver hilus was mounted longitudinally on tissue holders. The tissues were suspended in individual 20 ml organ chambers and connected to a micrometer for control of tissue length and a Grass FT.03 force transducer. Mechanical responses were recorded on Grass Model 7D polygraphs.
The rat portal vein segments were gradually stretched over a 1 to 2 hour equilibration period to a preload of 0.5 g. When the frequency and height of the spontaneous twitches had stabilized, propranolol (1 µM) was added and cumulative concentration response curves were obtained for the test compounds. A steady state reduction of the twitch height and frequency was reached before the next concentration was added.
Force development by the portal vein segments was determined at the peak of the twitch. The effect of each compound on force was calculated relative to the force in its absence. IC₅₀ values were determined at the concentration where 50% of the maximal inhibition force was attained. In addition, the relative frequency of twitches was determined by counting the number of twitches in a 5 minute period following drug addition and determining the change in rate from basal (absence of test compund). Results were then calculated as % inhibition of twitch frequency. Data are report as mean ± SEM.

Series [2] relates to isolated, buffer perfused rat hearts. The series is described as follows: Global ischemia (25 min) and reperfusion (30 min) in isolated, buffer perfused rat hearts (Langendorff). Here is the method:
For the determination of the effect of the potassium channel activators pinacidil and BRL 34915 (cromakalim) on post-ischemic necrosis and function, isolated, buffer perfused rat hearts were used. Male Sprague-Dawely rats (450-550 g) were used for all experiments. The rats were anesthetized using 30 mg/kg sodium pentobarbital (i.p.) They were intubated and then treated with i.v. heparin (1000 U/kg). While being mechanically ventilated, their hearts were perfused in situ via retrogade cannulation of the aorta. The hearts were then excised and quickly moved to a Langendorff apparatus where they were perfused with Krebs-Henseleit (1.25 mM CaCl₂) buffer at a constant pressure (80 mmHg). A saline-filled latex balloon attached to a metal cannula was then inserted into the left ventricle and connected to a Statham pressure transducer for measurement of left ventricular systolic and developed (LVDP) pressure. The hearts were allowed to equilibrate for 15 minutes at which time end diastolic pressure (EDP) was adjusted to 5 mm Hg and this was maintained for 5 minutes. Pre-ischemia, pre-drug function (HRXLVDP/1000), heart rate, and coronary blood flow (extracorporeal electromagnetic flow probe, Carolina Medical Electronics, King, N.C.) were then determined.
Once the baseline measurements were made, the hearts were divided into 4 groups (n=4-6 each): 1. Hearts receiving vehicle. 2. Hearts receiving 1, 10 or 100 µM pinacidil. 3. Hearts receiving 1 or 7 µM BRL 34915. 4. Hearts receiving 1, 10 or 100 µM nicroandil. Each heart received its respective treatment in the perfusion buffer for 10 minutes at which time functional and flow parameters were again measured. All hearts were then made globally ischemic by shutting off the perfusate for 25 minutes. Reperfusion was then instituted with the normal nondrug treated buffer. Reperfusion was maintained for 30 minutes at which time flow and functional parameters were again measured. Lactate dehydrogenase (LDH) release into the reperfusion effluent was measured and this is a measure of myocardial cell death or necrosis. The severity of ischemia was determined by the return of function during reperfusion, mitigation of contracture (lower end diastolic pressure) and LDH release.

The subject of series [3] is awake dogs with acute myocardial infarction. The note with it: cited from earlier work.
Series [4] deals with Ischemic-Reperfused Myocardium. The settings on record: infusion prior to and during a 15-min coronary occlusion; 3-h reperfusion period; cited from earlier work.
The test system of series [5] is aorta. The series is described as follows: Comparison of potency in aorta (phenylephrine contractions) and portal vein. Set-up: species or system rat. The note with it: portal vein compared with aorta. The method, then: as §1
as §2, with “The tissues were suspended in individual 20 ml organ chambers and connected to a micrometer for control of tissue length and a Grass FT.03 force transducer.” left out

Where [6] appears, read: inhibition of spontaneous mechanical activity (twitch height), cumulative concentration response curves, propranolol 1 µM present, N=4 (cromakalim, pinacidil N=5), read-out: IC₅₀.

Like-named read-outs stand apart in the source and are kept apart here.

On to `CC1(C)Oc2ccc(C#N)cc2[C@@H](N2CCCC2=O)[C@@H]1O` (racemic) [Cromakalim, (±)-6-cyano-3,4-dihydro-2,2-dimethyl-trans-4-(2-oxo-1-pyrrolidyl)-2H-benzo[b]-pyran-3-ol], for which, in series [1] (setting [6]), the IC50 amounted to 0.12 µM. Further, in series [2] (7 µM), the “LDH release and thus necrosis” value was “reduced”; the “myocardial function during reperfusion” value is given as “improved”.

Take `CC1(C)Oc2ccc(C#N)cc2[C@@H](N)[C@@H]1O` (relative stereo) [SQ 32,844, (trans)-4-amino-3,4-dihydro-3-hydroxy-2,2-dimethyl-2H-1-benzopyran-6-carbonitrile]: in series [1] (setting [6]), the IC50 is 38 µM.

As to `CC(NC(=NC#N)Nc1ccncc1)C(C)(C)C` (single isomer, unassigned; (+)) [Pinacidil, (+)-2-cyano-1-(4-pyridyl)-3-(1,2,2-trimethylpropyl)guanidine], in series [3], the “blood flow to ischemic myocardium” value is listed as “no effect” and the infarct size result was “no effect”. In addition, the IC50 in series [1] (setting [6]) was found to be 0.15 µM. In addition, in series [2] (10 µM, 30 min reperfusion), the post-ischemic cardiac function entry was “significantly improved” and the “reperfusion end diastolic pressure (EDP) (contracture)” value is given as “reduced”. Besides, in series [2] (100 µM), the “toxic effects (before ischemia reduction in function)” value was “a tendency for toxic effects”. Besides, in series [2] (1 and 100 µM in perfusion buffer for 10 min before ischemia), the anti-ischemic activity entry is “did not show any marked anti-ischemic activity”. Also, the “necrosis as measured by lactate dehydrogenase (LDH) release” value in series [2] (at the doses used (1, 10 or 100 µM)) is recorded as “did not significantly reduce necrosis”.

Consider `Nc1nc2c(nc(Br)n2[C@@H]2O[C@@H]3COP(=O)(O)O[C@H]3[C@H]2O)c(=O)[nH]1` [8-Bromo cyclic GMP], for which the IC50 in series [1] (setting [6]) was 43 µM. For the same compound, the twitch frequency result in series [1] (frequency of spontaneous contractions with increasing concentration) is “reduced twitch frequency”.

Take `O=C(NCCO[N+](=O)[O-])c1cccnc1` [Nicorandil, N-(2-hydroxyethyl)nicotinamide nitrate ester]: the “recovery of mycocardial segment function (%SS, dL/dt)” value in series [4] is reported as “significantly improved recovery”. In series [5], the “potency in the aorta and portal vein” value is listed as “reduced potency”. Moreover, the IC50 amounted to 5.1 µM in series [1] (values restated in text, read-out: IC₅₀ (50% of the maximum inhibition) in the inhibition of spontaneous mechanical activity in rat portal vein) and 5.1 µM in series [1] (setting [6]). In addition, the “effectiveness (anti-ischemic)” value in series [2] (any dose used (1, 10 or 100 µM)) was “not showed to be effective”.

As to `O=C(O)c1cccnc1` [nicotinic acid], the “recovery of mycocardial segment function (%SS, dL/dt)” value in series [4] was “significantly improved recovery”.
